Literature values as cited in US20230039551A1, “BUFFER- AND CHELATOR-FREE, STABLE OPHTHALMOLOGICAL COMPOSITIONS OF KETOROLAC AND PHENYLEPHRINE AND APPLICATIONS THEREOF” (Somerset Therapeutics, LLC, priority 2021, published 2023).
Structures can show the parent of a compound that is named as a salt.

SMILES | pKa value
O=C(c1ccccc1)c1ccc2n1CCC2C(=O)O (centres unmarked) [Ketorolac tromethamine, 2-amino-2-(hydroxymethyl)propane-1,3-diol; 5-benzoyl-2,3-dihydro-1H-pyrrolizine-1-carboxylic acid] | about 3.5
CNC[C@H](O)c1cccc(O)c1 [Phenylephrine HCl, 3-(1R)-1-hydroxy-2-(methylamino)ethyl]phenol; hydrochloride] | about 9.07
